Laboratory results taken from ChEMBL document CHEMBL1132263, “Synthesis of caged peptides using caged lysine: application to the synthesis of caged AIP, a highly specific inhibitor of calmodulin-dependent protein kinase II” (Bioorg Med Chem Lett, 1999).
Where a SMILES comes first, the peptide text is derived from it. The star is where a group is joined. X1 = O=C(OCc1ccccc1[N+](=O)[O-])*; Cbz = O=C(OCc1ccccc1)*

The compounds below were run against CaM kinase II (Homo sapiens, UniProt Q13557+Q13555+Q13554+Q9UQM7) (assay: Inhibitory activity of compound against CaMKII).
Format: protein assay

First: CC(C)C[C@H](NC(=O)[C@H](C)NC(=O)[C@H](CC(=O)O)NC(=O)[C@@H](NC(=O)[C@H](C)NC(=O)[C@H](CCC(=O)O)NC(=O)[C@H](CCC(N)=O)NC(=O)[C@H](CCCN=C(N)N)NC(=O)[C@H](CCCN=C(N)N)NC(=O)[C@H](CC(C)C)NC(=O)[C@H](C)NC(=O)OCc1ccccc1)C(C)C)C(=O)O (Cbz-ALRRQEAVDAL-OH)
Second: CC(C)C[C@H](NC(=O)[C@H](C)NC(=O)[C@H](CC(=O)O)NC(=O)[C@@H](NC(=O)[C@H](C)NC(=O)[C@H](CCC(=O)O)NC(=O)[C@H](CCC(N)=O)NC(=O)[C@H](CCCN=C(N)N)NC(=O)[C@H](CCCN=C(N)N)NC(=O)[C@H](CC(C)C)NC(=O)[C@H](C)NC(=O)[C@H](CCCCN)NC(=O)[C@@H](N)CCCCN)C(C)C)C(=O)O (H-KKALRRQEAVDAL-OH)
The IC50 of the first is 31-fold higher: 1000 nM for the first, 32 nM for the second.

First: CC(C)C[C@H](NC(=O)[C@H](C)NC(=O)[C@H](CC(=O)O)NC(=O)[C@@H](NC(=O)[C@H](C)NC(=O)[C@H](CCC(=O)O)NC(=O)[C@H](CCC(N)=O)NC(=O)[C@H](CCCN=C(N)N)NC(=O)[C@H](CCCN=C(N)N)NC(=O)[C@H](CC(C)C)NC(=O)[C@H](C)NC(=O)[C@H](CCCCNC(=O)OCc1ccccc1[N+](=O)[O-])NC(=O)[C@@H](N)CCCCNC(=O)OCc1ccccc1[N+](=O)[O-])C(C)C)C(=O)O (H-K(X1)K(X1)ALRRQEAVDAL-OH)
Second: CC(C)C[C@H](NC(=O)[C@H](C)NC(=O)[C@H](CC(=O)O)NC(=O)[C@@H](NC(=O)[C@H](C)NC(=O)[C@H](CCC(=O)O)NC(=O)[C@H](CCC(N)=O)NC(=O)[C@H](CCCN=C(N)N)NC(=O)[C@H](CCCN=C(N)N)NC(=O)[C@H](CC(C)C)NC(=O)[C@H](C)NC(=O)[C@H](CCCCN)NC(=O)[C@@H](N)CCCCNC(=O)OCc1ccccc1[N+](=O)[O-])C(C)C)C(=O)O (H-K(X1)KALRRQEAVDAL-OH)
The IC50 of the first is 33-fold higher: 1200 nM for the first, 36 nM for the second.
